Reference: patent US20080300243A1, “Amide Derivatives as Ion-Channel Ligands and Pharmaceutical Compositions and Methods of Using the Same” (priority 2005, published 2008)

Tests used:
[1] = Half-life in human liver microsomes (HLM); assay type: in vitro ADME; conditions: human, human liver microsomes (HLM, HL101), pH 7.4; 1 μM compound, 0.78 mg/mL HLM, 37° C., NADPH
Description: Test compounds (1 μM) were incubated with 3.3 mM MgCl2 and 0.78 mg/mL HLM (HL101) in 100 mM potassium phosphate buffer (pH 7.4) at 37° C. on the 96-deep well plate. The reaction mixture was split into two groups, a non-P450 and a P450 group. NADPH was only added to the reaction mixture of the P450 group. An aliquot of samples of P450 group was collected at 0, 10, 30, and 60 min time point, where 0 min time point indicated the time when NADPH was added into the reaction mixture of P450 group. An aliquot of samples of non-P450 group was collected at −10 and 65 min time point. Collected aliquots were extracted with acetonitrile solution containing an internal standard. The precipitated protein was spun down in centrifuge (2000 rpm, 15 min). The compound concentration in supernatant was measured by LC/MS/MS system.
The half-life value was obtained by plotting the natural logarithm of the peak area ratio of compounds/internal standard versus time. The slope of the line of best fit through the points yields the rate of metabolism (k). This was converted to a half-life value using following equations:
Exemplary compounds of the invention were tested (1 μM), and were incubated with 3.3 mM MgCl2 and 0.78 mg/mL HLM (HL101) in 100 mM potassium phosphate buffer (pH 7.4) at 37° C. on the 96-deep well plate. The reaction mixture was split into two groups, a non-P450 and a P450 group. NADPH was only added to the reaction mixture of the P450 group. An aliquot of samples of the P450 group was collected at 0, 10, 30, and 60 minute time points, where the 0 minute time point indicated the time when NADPH was added into the reaction mixture of the P450 group. An aliquot of samples of the non-P450 group was collected at −10 and 65 minute time points. Collected aliquots were extracted with an acetonitrile solution containing an internal standard. The precipitated protein was spun down in a centrifuge (2000 rpm, 15 rain). The compound concentration in supernatant was measured by LC/MS/MS system. The half-life value (T1/2) was obtained by plotting the natural logarithm of the peak area ratio of compounds/internal standard versus time. The slope of the line of best fit through the points yields the rate of metabolism (k). This was converted to a half-life value using following equations: Half-life=ln 2/k.

VR1 [2] = target: T1, VR1 (Homo sapiens, UniProt Q8NER1); test: Calcium uptake assay, low pH (proton) stimulus; assay type: cell-based; set-up: expressed in transfected cells; host or cells: T-REx HEK 293 (Invitrogen), pcDNA5/TO vector; conditions: HEK293; 0.3 μM compound; low pH agonist; HEK 293 cells expressing hVR1; read-out: Low pH % Inhib. @ 0.3 μM
Target sequence in this assay (Q8NER1 whole entry): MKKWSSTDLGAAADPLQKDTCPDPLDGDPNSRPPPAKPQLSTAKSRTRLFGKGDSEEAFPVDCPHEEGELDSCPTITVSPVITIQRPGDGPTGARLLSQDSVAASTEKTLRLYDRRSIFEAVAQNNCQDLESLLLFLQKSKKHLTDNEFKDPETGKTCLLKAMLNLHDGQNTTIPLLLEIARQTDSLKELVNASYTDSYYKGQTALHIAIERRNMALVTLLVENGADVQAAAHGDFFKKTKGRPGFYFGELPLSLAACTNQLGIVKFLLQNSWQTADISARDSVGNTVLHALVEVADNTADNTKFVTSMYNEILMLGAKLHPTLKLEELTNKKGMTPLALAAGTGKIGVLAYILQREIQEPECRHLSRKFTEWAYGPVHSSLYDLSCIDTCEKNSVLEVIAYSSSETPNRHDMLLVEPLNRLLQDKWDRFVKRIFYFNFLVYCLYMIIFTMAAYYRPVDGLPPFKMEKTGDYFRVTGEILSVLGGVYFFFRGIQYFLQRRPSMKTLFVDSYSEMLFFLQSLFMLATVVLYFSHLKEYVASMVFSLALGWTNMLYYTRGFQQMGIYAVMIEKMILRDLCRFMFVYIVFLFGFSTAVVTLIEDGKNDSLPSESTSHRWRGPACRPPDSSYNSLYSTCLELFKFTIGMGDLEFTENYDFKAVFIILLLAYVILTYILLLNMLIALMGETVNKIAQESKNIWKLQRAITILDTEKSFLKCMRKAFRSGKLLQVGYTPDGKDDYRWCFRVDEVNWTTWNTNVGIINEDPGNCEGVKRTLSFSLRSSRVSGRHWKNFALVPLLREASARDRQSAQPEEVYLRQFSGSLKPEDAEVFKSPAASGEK

VR1 receptor = target: T2, VR1 receptor (Rattus norvegicus, UniProt O35433); test: Calcium imaging assay in DRG neurons, capsaicin stimulus; assay type: cell-based; conditions: for inhibition of the Capsaicin induced intracellular calcium response (FIG. 1): 3 nM compound, DRG neurons
T2 construct: endogenous in cells; host or cells: dorsal root ganglion (DRG) neurons
T2 sequence (O35433 whole entry): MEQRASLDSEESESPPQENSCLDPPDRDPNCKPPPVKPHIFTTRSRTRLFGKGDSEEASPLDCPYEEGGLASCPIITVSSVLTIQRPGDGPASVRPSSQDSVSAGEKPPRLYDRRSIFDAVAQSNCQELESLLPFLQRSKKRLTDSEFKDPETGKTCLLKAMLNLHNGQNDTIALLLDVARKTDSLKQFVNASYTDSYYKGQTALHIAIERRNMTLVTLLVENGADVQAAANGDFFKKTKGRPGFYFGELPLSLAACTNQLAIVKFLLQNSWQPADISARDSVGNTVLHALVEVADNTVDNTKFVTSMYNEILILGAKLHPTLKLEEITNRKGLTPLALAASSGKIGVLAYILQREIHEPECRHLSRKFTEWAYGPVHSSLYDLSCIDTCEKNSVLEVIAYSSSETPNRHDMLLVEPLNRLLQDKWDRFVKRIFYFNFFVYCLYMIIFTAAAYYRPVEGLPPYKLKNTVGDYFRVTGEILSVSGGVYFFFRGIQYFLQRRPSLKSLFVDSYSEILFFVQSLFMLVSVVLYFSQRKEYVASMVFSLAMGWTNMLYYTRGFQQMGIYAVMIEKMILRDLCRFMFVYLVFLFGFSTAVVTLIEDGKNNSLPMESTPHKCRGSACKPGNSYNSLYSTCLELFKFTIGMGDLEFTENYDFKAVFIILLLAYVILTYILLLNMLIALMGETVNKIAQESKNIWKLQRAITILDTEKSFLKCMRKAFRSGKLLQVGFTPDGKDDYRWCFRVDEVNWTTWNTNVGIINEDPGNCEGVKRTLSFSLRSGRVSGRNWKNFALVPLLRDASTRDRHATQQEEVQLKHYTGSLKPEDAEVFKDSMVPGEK
Description: Therefore the functional activity of compounds at the VR1 receptor may be determined by measuring changes in intracellular calcium levels in neurons such as the dorsal root ganglion. […] Prior to assay, cells were loaded with 5 μg/ml Fura2 in normal saline solution at 37° C. for 40 minutes. Cells were then washed with normal saline to remove dye before commencement of the experiment. The plated neurons were transferred into a chamber on the stage of a Nikon eclipse TE300 microscope after which neurons were allowed to attain a stable fluorescence for about 10 minutes before beginning the experiment. The assay consists of two stages, a pretreatment phase followed by a treatment phase. First, a solution of the test compound was added from a multivalve perfusion system to the cells for 1 minute (pretreatment). […] Fura2 was excited at 340 and 380 nm to indicate relative calcium ion concentration. Changes in wavelength measurements were made throughout the course of the experiment. The fluorescence ratio was calculated by dividing fluorescence measured at 340 nm by that at 380 nm. Data were collected using Intelligent Imaging's Slidebook software.

VR1 [3] = target: T1, VR1; test: Acid stimulation assay (FDSS 6000); assay type: cell-based; set-up: host or cells: unspecified cell suspension; conditions: final assay buffer pH5.8, 15 min pre-incubation
Description: The Acid-induced changes in the intracellular calcium concentration were monitored using FDSS 6000 (Hamamatsu Photonics, Japan), a fluorometric imaging system. The cell suspension in resting buffer (HBSS supplemented with […], pH 7.4) was pre-incubated with varying concentrations of the test compounds or resting buffer (buffer control) for 15 minutes at room temperature under dark conditions. The cells were automatically added the stimulating solution (HBSS supplemented with MES, final assay buffer pH5.8) by the FDSS 6000.
Target sequence in this assay (Q8NER1 whole entry, species assumed): as the sequence (Q8NER1 whole entry) above

Cc1cc(/C=C/C(F)(F)F)ccc1C(=O)Nc1ccc2sc(CO)nc2c1 [Compound 225]
half-life at 1 μM [1]: 3.26 h
inhibition at 0.3 µM (VR1 [2]): 110%
inhibition of the Capsaicin induced intracellular calcium response (FIG. 1) (VR1 receptor): significant inhibition
inhibition of the Capsaicin induced intracellular calcium response (FIG. 1) (VR1 receptor; listed as compound 225): reduced
inhibition at 0.003 µM (VR1 receptor; DRG neuron, read-out: % inhibition of capsaicin induced calcium influx): > 75%
IC50 (VR1 [3]): 0.9 nM
